# In patent US10570179B2, “Substituted urea depsipeptide analogs as activators of the CLPP endopeptidase” (priority 2016, dated 2020):
# Like-named read-outs stand apart in the source and are kept apart here. Numbered stars: 1 amine (or outer) side, 2 acyl side, 3 side chain; on linkers, the order of the positions; unused ones are H or OH. Bridge positions count the residues as written; N and C are the ends. Square brackets hold non-standard residues; d marks the D form. Peptide text beside a SMILES is read from it. * marks the point of attachment. X5 = O=C([C@@H]1C[C@@H](OP(=O)(O)O)CN1[*:1])[*:2]; Piperazine(2S-CO,4-Me) = CN1CCN[C@H](C(=O)O)C1; Phe(3,5-F2) = N[C@@H](Cc1cc(F)cc(F)c1)C(=O)O; Phe(3,5-Me2) = Cc1cc(C)cc(C[C@H](N)C(=O)O)c1; NH(1-Me-indolin-5-yl) = CN1CCc2cc(N*)ccc21; Phe(3-Cl) = N[C@@H](Cc1cccc(Cl)c1)C(=O)O; Morpholine(3S-CO) = O=C(O)[C@@H]1COCCN1; Phe(3-Me) = Cc1cccc(C[C@H](N)C(=O)O)c1; NH(4-Cl-2-F-phenyl) = Fc1cc(Cl)ccc1N*; Pro(4R-Me) = C[C@H]1CN[C@H](C(=O)O)C1; Hyp = O=C(O)[C@@H]1C[C@@H](O)CN1; NH(4-Me-phenyl) = Cc1ccc(N*)cc1; aThr = C[C@H](O)[C@H](N)C(=O)O; Pip = O=C(O)[C@@H]1CCCCN1; X3 = c1cc2c(cc1N*)OCCO2; CO = O=C([*:1])[*:2]
# Experiments:
# S. aureus ClpP (Sa-ClpP) = molecular target: T1, S. aureus ClpP (Sa-ClpP) (Staphylococcus aureus, UniProt Q2G036); assay: Casein-BODIPY digestion assay (ClpP activation); type: biochemical
# T1 construct: made in house; host or cells: E. coli BL21 (DE3)
# S. aureus ΔClpP = assay: Minimal inhibitory concentration, microbroth dilution; type: cell-based, Staphylococcus aureus; details: MIC; ClpP inactivated
# Outline: (§1)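 Growth inhibition was scored visually after overnight aerobic culture at 37 °C in CLSI-style microdilution plates. Inocula contained about 10^5 cfu/mL, and compound concentrations descended in twofold steps from 200 μM.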
# Solubility determination = type: physicochemical; details: for solubility kinetic at 10 min: 22 °C, aqueous buffer, kinetic from dmso stock
# Method: Test compounds were synthesized and supplied by the Department of Chemical Biology and Therapeutics at St. Jude Children's Research Hospital (Memphis, Tenn.). LC-MS chromasolv grade acetonitrile (ACN) was purchased from Fisher Scientific (Loughborough, UK). LC-MS chromasolv grade formic acid was obtained from Sigma-Aldrich (St. Louis, Mo.). Milli-Q water as an ultrapure laboratory grade water was used in aqueous mobile phase.
# Chromatographic separation was performed on an Acquity UPLC BEH C18 1.7 μm, 2.1×50 mm column (Waters Corporation, Milford, Mass.) using an Acquity ultra performance liquid chromatography system. The total flow rate was 0.9 mL/min. The sample injection volume was 10 μL. The UPLC column was maintained at 60° C. and the gradient program started at 90% A (0.1% formic acid in MilliQ H2O), changed to 70% A over 0.2 min, to 95% B (0.1% formic acid in ACN) over 1.4 minutes, held for 0.35 minutes, then to 90% A over 0.05 minutes.
# Mass data was acquired with an Acquity SQD Mass Spectrometer. The mass spectrometer was operated in positive-ion mode with electrospray ionization. The conditions were as follows: capillary voltage 3.5 kV, cone voltage 30 V, source temperature 150° C., desolvation temperature 350° C., desolvation gas 500 L/hr, cone gas 25 L/hr. Data were acquired using Masslynx v. 4.1 and analyzed using the Quanlynx software suite. A full scan range from m/z=100-1000 in 0.2 s was used to acquire MS data. Both UV and Single ion recording mass spectrometry were used to determine the quantification of the samples.
# Stock solutions were prepared by dissolving compounds into DMSO to yield a concentration of 10 mM. Stock solutions were stored at room temperature.
# Calibration standards were made by adding stock solutions to DMSO for final concentrations of compounds at concentration of 100, 25, 6.25, 1.563, 0.391 and 0.098 μM.
# Solubility test samples were made by adding stock solutions to 200 μL, of DPBS for final concentrations of compounds at 100 μM in a 96-well analytical plate (300 μL, maximum volume in each well). Samples were tested in triplicates. The plate was sealed, shaken at 600 rpm for 10 minutes, and then was centrifuged at 4000 rpm for 20 min at 22° C. 100 μL, of the supernatant was transferred to a new analytical 96-well plate and 10 μL, was injected onto the LCMS system.
# Two calibration curves for solubility test samples were analyzed during the quantitation process. The linear regression of test compound peak areas was weighted by 1/x^2. […] Coefficient of determination (R^2) was used to evaluate the linearity of each calibration curve.
# S. pyogenes = assay: Minimal inhibitory concentration, microbroth dilution; type: cell-based; details: Streptococcus pyogenes, read-out: Minimal Inhibitory Concentrations (μM) S. pyogenes
# Outline: as §1
# [1] = solubility in DPBS, 100 μM test samples, LCMS, read-out: LCMS
# T1 sequence (Q2G036 whole entry): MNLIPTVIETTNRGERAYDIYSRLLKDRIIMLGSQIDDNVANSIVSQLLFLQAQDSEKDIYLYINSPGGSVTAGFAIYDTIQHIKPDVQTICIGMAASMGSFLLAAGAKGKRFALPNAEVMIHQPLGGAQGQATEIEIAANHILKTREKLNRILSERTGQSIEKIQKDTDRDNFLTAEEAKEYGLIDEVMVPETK
Structure (SMILES),EC50 (S. aureus ClpP (Sa-ClpP)) [nM],Minimal Inhibitory Concentrations (μM) S. aureus ΔClpP (S. aureus ΔClpP) [µM],solubility kinetic at 10 min (Solubility determination; [1]) [µM],μsol (μM) (Solubility determination; solubility) [µM],μsol (μg/mL) (Solubility determination; solubility) [µg/mL],MIC (S. pyogenes) [µM],μsol (μM) (Solubility determination) [µM],solubility kinetic at 10 min (Solubility determination) [µM],MIC (S. pyogenes; MIC) [µM]
"Cc1ccc(NC(=O)N[C@@H](Cc2cccc(C)c2)C(=O)N[C@@H]2C(=O)N3CCC[C@H]3C(=O)N3CCCC[C@H]3C(=O)N[C@@H](C)C(=O)N3C[C@H](C)C[C@H]3C(=O)O[C@H]2C)cc1 [Compound 1, (S)-3-(M-TOLYL)-2-(3-(P-TOLYL)UREIDO)-N-((2R,6S,8AS,14AS,20S,21S,23AS)-2,6,21-TRIMETHYL-5,8,14,19,23-PENTAOXOOCTADECAHYDRO-1H,5H,14H,19H-PYRIDO[2,1-I]DIPYRROLO[2,1-C:2′,1′-L][1]OXA[4,7,10,13]TETRAAZACYCLOHEXADECIN-20-YL)PROPANAMIDE] ({NH(4-Me-phenyl)-CO}-[Phe(3-Me)][aThr]P[Pip]A[Pro(4R-Me)]; ester 2-C)",430 ± 20,200,22.9,40.7,32.0,0.313,–,–,–
"Cc1ccc(NC(=O)N[C@@H](Cc2cc(C)cc(C)c2)C(=O)N[C@@H]2C(=O)N3CCC[C@H]3C(=O)N3CCCC[C@H]3C(=O)N[C@@H](C)C(=O)N3C[C@H](C)C[C@H]3C(=O)O[C@H]2C)cc1 [Compound 2, (S)-3-(3,5-DIMETHYLPHENYL)-2-(3-(P-TOLYL)UREIDO)-N-((2R,6S,8AS,14AS,20S,21S,23AS)-2,6,21-TRIMETHYL-5,8,14,19,23-PENTAOXOOCTADECAHYDRO-1H,5H,14H,19H-PYRIDO[2,1-I]DIPYRROLO[2,1-C:2′,1′-L][1]OXA[4,7,10,13]TETRAAZACYCLOHEXADECIN-20-YL)PROPANAMIDE] ({NH(4-Me-phenyl)-CO}-[Phe(3,5-Me2)][aThr]P[Pip]A[Pro(4R-Me)]; ester 2-C)",870 ± 30,200,6.7,10.4,8.3,> 20,–,–,–
"Cc1cccc(C[C@H](NC(=O)Nc2ccc3c(c2)OCCO3)C(=O)N[C@@H]2C(=O)N3C[C@H](O)C[C@H]3C(=O)N3CCCC[C@H]3C(=O)N[C@@H](C)C(=O)N3C[C@H](C)C[C@H]3C(=O)O[C@H]2C)c1 [Compound 28, (S)-2-(3-(2,3-DIHYDROBENZO[B][1,4]DIOXIN-6-YL)UREIDO)-N-((2R,6S,8AS,14AS,16R,20S,21S,23AS)-16-HYDROXY-2,6,21-TRIMETHYL-5,8,14,19,23-PENTAOXOOCTADECAHYDRO-1H,5H,14H,19H-PYRIDO[2,1-I]DIPYRROLO[2,1-C:2′,1′-L][1]OXA[4,7,10,13]TETRAAZACYCLOHEXADECIN-20-YL)-3-(M-TOLYL)PROPANAMIDE] ({X3-CO}-[Phe(3-Me)][aThr][Hyp][Pip]A[Pro(4R-Me)]; ester 2-C)",910 ± 80,>20,–,–,–,–,30.2 ± 0.2,34.7 ± 4.7,–
"Cc1cccc(C[C@H](NC(=O)Nc2ccc(Cl)cc2F)C(=O)N[C@@H]2C(=O)N3C[C@H](OP(=O)(O)O)C[C@H]3C(=O)N3CCCC[C@H]3C(=O)N[C@@H](C)C(=O)N3C[C@H](C)C[C@H]3C(=O)O[C@H]2C)c1 [Compound 29, (2R,6S,8AS,14AS,16R,20S,21S,23AS)-20-((S)-2-(3-(4-CHLORO-2-FLUOROPHENYL)UREIDO)-3-(M-TOLYL)PROPANAMIDO)-2,6,21-TRIMETHYL-5,8,14,19,23-PENTAOXOOCTADECAHYDRO-1H,5H,14H,19H-PYRIDO[2,1-I]DIPYRROLO[2,1-C:2′,1′-L][1]OXA[4,7,10,13]TETRAAZACYCLOHEXADECIN-16-YL DIHYDROGEN PHOSPHATE] ({NH(4-Cl-2-F-phenyl)-CO}-[Phe(3-Me)][aThr][X5][Pip]A[Pro(4R-Me)]; ester 2-C)",240 ± 240,>20,66.6 ± 6.6,58.7 ± 8.7,–,–,–,–,–
"Cc1ccc(NC(=O)N[C@@H](Cc2cccc(C)c2)C(=O)N[C@@H]2C(=O)N3C[C@H](O)C[C@H]3C(=O)N3CCN(C)C[C@H]3C(=O)N[C@@H](C)C(=O)N3C[C@H](C)C[C@H]3C(=O)O[C@H]2C)cc1 [Compound 30, (S)—N-((6AS,8R,12S,13S,15AS,17R,21S,23AS)-8-HYDROXY-2,13,17,21-TETRAMETHYL-6,11,15,20,23-PENTAOXOOCTADECAHYDRO-2H,6H,11H,15H-PYRAZINO[2,1-I]DIPYRROLO[2,1-C:2′,1′-L][1]OXA[4,7,10,13]TETRAAZACYCLOHEXADECIN-12-YL)-3-(M-TOLYL)-2-(3-(P-TOLYL)UREIDO)PROPANAMIDE] ({NH(4-Me-phenyl)-CO}-[Phe(3-Me)][aThr][Hyp][Piperazine(2S-CO,4-Me)]A[Pro(4R-Me)]; ester 2-C)",290 ± 290,>20,68.8 ± 8.8,54.5 ± 4.5,–,–,–,–,–
"Cc1cccc(C[C@H](NC(=O)Nc2ccc(Cl)cc2F)C(=O)N[C@@H]2C(=O)N3C[C@H](O)C[C@H]3C(=O)N3CCN(C)C[C@H]3C(=O)N[C@@H](C)C(=O)N3C[C@H](C)C[C@H]3C(=O)O[C@H]2C)c1 [Compound 31, (S)-2-(3-(4-CHLORO-2-FLUOROPHENYL)UREIDO)-N-((6AS,8R,12S,13S,15AS,17R,21S,23AS)-8-HYDROXY-2,13,17,21-TETRAMETHYL-6,11,15,20,23-PENTAOXOOCTADECAHYDRO-2H,6H,11H,15H-PYRAZINO[2,1-I]DIPYRROLO[2,1-C:2′,1′-L][1]OXA[4,7,10,13]TETRAAZACYCLOHEXADECIN-12-YL)-3-(M-TOLYL)PROPANAMIDE] ({NH(4-Cl-2-F-phenyl)-CO}-[Phe(3-Me)][aThr][Hyp][Piperazine(2S-CO,4-Me)]A[Pro(4R-Me)]; ester 2-C)",180 ± 180,>20,–,–,–,–,54.7 ± 4.7,68.9 ± 8.9,–
"C[C@@H]1C[C@H]2C(=O)O[C@@H](C)[C@H](NC(=O)[C@H](Cc3cc(F)cc(F)c3)NC(=O)Nc3ccc4c(c3)CCN4C)C(=O)N3CCC[C@H]3C(=O)N3CCOC[C@H]3C(=O)N[C@@H](C)C(=O)N2C1 [Compound 32] ({NH(1-Me-indolin-5-yl)-CO}-[Phe(3,5-F2)][aThr]P[Morpholine(3S-CO)]A[Pro(4R-Me)]; ester 2-C)",–,>20,71.5 ± 1.5,73.4 ± 3.4,62.5 ± 2.1,0.156,–,–,–
"C[C@@H]1C[C@H]2C(=O)O[C@@H](C)[C@H](NC(=O)[C@H](Cc3cccc(Cl)c3)NC(=O)Nc3ccc(Cl)cc3F)C(=O)N3CCC[C@H]3C(=O)N3CCN(C)C[C@H]3C(=O)N[C@@H](C)C(=O)N2C1 [Compound 33] ({NH(4-Cl-2-F-phenyl)-CO}-[Phe(3-Cl)][aThr]P[Piperazine(2S-CO,4-Me)]A[Pro(4R-Me)]; ester 2-C)",200 ± 200,>20,–,–,–,–,17.2 ± 7.2,12.8 ± 2.8,–
"C[C@@H]1C[C@H]2C(=O)OC[C@H](NC(=O)[C@H](Cc3cc(F)cc(F)c3)NC(=O)Nc3ccc(Cl)cc3F)C(=O)N3CCC[C@H]3C(=O)N3CCN(C)C[C@H]3C(=O)N[C@@H](C)C(=O)N2C1 [Compound 34] ({NH(4-Cl-2-F-phenyl)-CO}-[Phe(3,5-F2)]SP[Piperazine(2S-CO,4-Me)]A[Pro(4R-Me)]; ester 2-C)",–,>20,–,–,–,–,38.7 ± 8.7,53.6 ± 3.58,0.078
